Experimental data from patent US20030040510A1, “Selective estrogen receptor modulators in combination with estrogens” (Endorecherche, Inc., priority 2000, published 2003).
“Also recorded” adds a separate entry of the source.

Experiments:
[1] = tested on: ovariectomized female rats; experiment: Prevention of bone loss, body fat, serum cholesterol and ALP, 26-week treatment of OVX rats (Example 5A, experiment 2); assay type: in vivo, Sprague-Dawley rats; settings: OVX rats, 26 weeks
Description: (§1) Ten to twelve week-old female Sprague-Dawley rats (Crl:CD(SD)Br) (Charles River Laboratory, St-Constant, Canada) weighing approximately 220-270 g at start of treatment were used. The animals were acclimatized to the environmental conditions (temperature: 22±3° C.; humidity: 50±20%; 12-h light-12-h dark cycles, lights on at 07:15 h) for at least 1 week before starting the experiments. The animals were housed individually and were allowed free access to tap water and a pelleted certified rodent feed (Lab Diet 5002, Ralston Purina, St-Louis, Mo.). Experiments were conducted in an animal facility approved by the Canadian Council on Animal Care (CCAC) and the Association for Assessment and Accreditation of Laboratory Animal Care (AAALAC) in accordance with the CCAC Guide for Care and Use of Experimental Animals.
On day 1 of the study, the animals of the appropriate groups were bilaterally OVX under isoflurane anesthesia. Tested compounds were administered as suspension in 0.4% methylcellulose by oral gavage. Treatments were initiated on day 2 of the study and were performed once daily during 26 weeks. In both experiments, animals not receiving a test article were treated with the appropriate vehicle alone during the same period.
After 3 months (experiment 1) or 26 weeks (experiment 2) of treatment, individual rats under Isoflurane anesthesia had their whole body skeleton and lumbar spine scanned using dual energy x-ray absorptiometry (DEXA; QDR 4500A, Hologic, Waltham, Mass.) and a Regional High Resolution Scan software. The bone mineral density (BMD) of the lumbar spine (vertebrae L2 to L4) and the total body composition (fat percentage) were determined.
After 3 months (experiment 1) or 26 weeks (experiment 2) of treatment, blood samples were collected at the jugular vein from overnight fasted animals (under Isoflurane anesthesia). Samples were processed for serum preparation and frozen at −80° C. until assay. Serum cholesterol levels and alkaline phospatase activity (ALP) were determined using the Boehringer Mannheim Diagnostic Hitachi 911 Analyzer (Boehringer Mannheim Diagnostic Laboratory Systems).

[2] = tested on: OVX rats having established osteopenia; experiment: Treatment of OVX rats having established osteopenia, 26 weeks (Example 5B): BMD, total body fat; assay type: in vivo, Sprague-Dawley rats; settings: treatment started 10 weeks after OVX, 26 weeks daily
Description: as §1, with “Height” for “Ten”, “nine month-old” for “twelve week-old”, “Canada)” for “Canada) weighing approximately 220-270 g at start of treatment”, “used in this experiment.” for “used.”, “prior to” for “before starting”, “ovariectomy. Animals were bilaterally ovariectomized (OVX) under isoflurane anesthesia. Twenty animals were kept intact as control.” for “experiments.”
Treatments were initiated 10 weeks after the ovariectomy and were performed once daily during 26 weeks. Animals not receiving a test article were treated with the appropriate vehicle alone during the same period.
Prior to the OVX, prior to the first day treatment (10 weeks after OVX) and after 26 weeks of treatment, individual rats under Isoflurane anesthesia had their whole body skeleton, lumbar spine and right femur scanned using dual energy x-ray absorptiometry (DEXA; QDR 4500A, Hologic, Waltham, Mass.) and a Regional High Resolution Scan software. The bone mineral density (BMD) of the lumbar spine (vertebrae L2 to L4), femur and the total body composition (fat percentage) were determined.

[3] = tested on: ovariectomized rats supplemented with 17β-estradiol; experiment: EM-652.HCl with oral 17β-estradiol for 2 weeks in OVX rats: uterus, endometrial epithelium, vagina, serum cholesterol (Example 10); assay type: in vivo, Sprague-Dawley rats; settings: for Reversal of the effect of E2 on uterine weight: 2 weeks
Description: Ten to twelve week-old female Sprague-Dawley rats (Crl:CD(SD)Br) (Charles River Laboratory, St-Constant, Canada) weighing 215-265 g at time of ovariectomy were used. The animals were housed individually in an environmentally-controlled room (temperature: 22±3° C.; humidity: 50±20%; 12-h light-12-h dark cycles, lights on at 07:15 h). The animals were allowed free access to tap water and a certified rodent feed (Lab Diet 5002 (pellet), Ralston Purina, St-Louis, Mo.). The experiment was conducted in an animal facility approved by the Canadian Council on Animal Care (CCAC) and the Association for Assessment and Accreditation of Laboratory Animal Care (AAALAC) in accordance with the CCAC Guide for Care and Use of Experimental Animals.
On the first day of the study, the animals of the appropriate groups were bilaterally ovariectomized (OVX) under isoflurane anesthesia. The tested compounds were then given once daily by oral gavage as a suspension in 0.4% methylcellulose (0.5 ml/rat) from day 1 to day 14 of the study. Animals of groups 1 and 2 received the vehicle alone during the same time period. On day 15 of the study, 4 animals per group were perfused with 10% buffered formalin and tissues were processed for histological examination. The other animals were killed by exsanguination at the abdominal aorta under isoflurane anesthesia. The uterus and vagina were removed, stripped of remaining fat and weighed. A specimen from each uterus was fixed in 10% buffered formalin for determination of the height of endometrial epithelial cells using a computerized-assisted program (Software Image-Pro Plus).
Total cholesterol was measured on serum samples collected from overnight fasted animals using a Boehringer Mannheim Diagnostic Hitachi 911 Analyzer (Boehringer Mannheim Diagnostic Laboratory Systems).

[4] = tested on: human breast cancer ZR-75-1 xenografts; experiment: Tamoxifen-stimulated growth of ZR-75-1 xenografts in nude mice with or without EM-652.HCl (FIG. 9); assay type: in vivo
Solid state stability = assay type: physicochemical
Description: In administering either EM-800 or EM-1538, it is believed to result in the same active compound in vivo.

[5] = EM-652.HCl 3 mg/kg + E2 2 mg/kg
[6] = EM-652.HCl 10 mg/kg + E2 2 mg/kg

For `CC1=C(c2ccc(O)cc2)[C@H](c2ccc(OCCN3CCCCC3)cc2)Oc2cc(O)ccc21.Cl` [EM-652.HCl, (S)-(+)-7-hydroxy-3-(4′-hydroxyphenyl)-4-methyl-2-(4″-(2′″-piperidinoethoxy)phenyl)-2H-1-benzopyran hydrochloride], the “Serum ALP” value [1] was 78 ± 4 IU, the Serum cholesterol [1] was 0.98 ± 0.06 mmol/L and the “Femoral BMD” value [2] was “completely prevented the further decrease”. The “Lumbar spine BMD” value [2] was “completely prevented the further decrease”, the Total body fat [2] was “prevented the 17% increase” and the “Effect on the inhibitory action of E2 on serum cholesterol” value ([3]; EM-652.HCl 0.01 mg/kg to 0.3 mg/kg) was “no statistically significant effect”. The “Reduction of the effect of E2 on serum cholesterol” value (“Reduction of the effect of E2” below) ([3]; EM-652.HCl 1.0 mg/kg) was 36%, the “Reduction of the effect of E2” value ([3]; EM-652.HCl 3.0 mg/kg) was 30% and the “Prevention of E2-stimulated endometrial epithelial height” value [3, 5] was 83%. The “Reversal of the effect of E2 on uterine weight” value [3, 5] was 84%, the “Inhibition of the stimulatory effect of E2 on vaginal weight” value ([3]; EM-652.HCl 3 mg/kg, statistically non significant) was 50% and the “Effect on the effect of E2 on vaginal weight” value ([3]; EM-652.HCl 10 mg/kg) was “complete reversal”. The “Reduction of the effect of E2” value ([3]; EM-652.HCl 10 mg/kg) was 50%, the “Prevention of E2-stimulated endometrial epithelial height” value [3, 6] was 93% and the “Reversal of the effect of E2 on uterine weight” value [3, 6] was 87%. The “Inhibitory effect on E2-stimulated vaginal weight” value ([3]; EM-652.HCl up to 1 mg/kg) was “no significant inhibitory effect”, the “Effect on tumor growth in the absence of Tamoxifen” value ([4]; EM-652.HCl by itself, hydrochloride) was “has no effect on tumor growth; also recorded: did not exert any stimulatory effect” and the “Effect on the stimulatory effect of Tamoxifen on tumor growth” value ([4]; simultaneous treatment with Tamoxifen) was “completely blocked”. The Solid state stability (Solid state stability) was “good solid state stability”.
